Source: publication PMC12851022, “Targeting the Spliceosomal Protein USP39 Through Allosteric Ligands and PROTAC‐Induced Degradation” (Angewandte Chemie (International Ed. in English), 2025)

Legend:
USP39_T2 = target: T1, USP39_T2 (Homo sapiens, UniProt Q53GS9); test: Isothermal titration calorimetry (ITC); type: binding
T1 construct: USP39_T2 (ZNF domain only); made in house
T1 sequence (Q53GS9 103-200 limits assumed): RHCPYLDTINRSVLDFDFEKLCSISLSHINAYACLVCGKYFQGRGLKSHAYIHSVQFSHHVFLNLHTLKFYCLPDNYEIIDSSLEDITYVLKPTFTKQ

USP39 [1] = target: T2, USP39 (Homo sapiens, UniProt Q53GS9); test: Western blot of USP39 levels in HeLa-WT cells; type: cell-based; set-up: endogenous in cells; host or cells: HeLa-WT; details: MG132 0.25 µM, 24 h ST
T2 sequence (Q53GS9 1-565): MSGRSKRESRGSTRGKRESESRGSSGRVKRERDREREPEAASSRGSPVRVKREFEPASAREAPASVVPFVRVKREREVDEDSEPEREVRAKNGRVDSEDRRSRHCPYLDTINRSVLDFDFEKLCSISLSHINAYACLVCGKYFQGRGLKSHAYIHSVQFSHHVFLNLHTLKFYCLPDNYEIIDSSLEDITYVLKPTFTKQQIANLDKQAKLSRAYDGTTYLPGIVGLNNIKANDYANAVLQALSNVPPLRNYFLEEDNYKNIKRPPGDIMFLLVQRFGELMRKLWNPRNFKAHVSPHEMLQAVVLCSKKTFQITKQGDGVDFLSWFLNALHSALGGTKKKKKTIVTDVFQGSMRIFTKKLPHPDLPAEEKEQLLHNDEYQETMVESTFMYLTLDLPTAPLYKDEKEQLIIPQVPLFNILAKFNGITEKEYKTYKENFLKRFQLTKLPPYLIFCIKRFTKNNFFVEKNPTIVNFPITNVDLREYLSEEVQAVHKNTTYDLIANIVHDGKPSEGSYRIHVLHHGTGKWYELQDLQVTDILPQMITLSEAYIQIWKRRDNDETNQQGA
Method: (§1) Figure 4 Effective and selective degradation of USP39 in cells by USP39‐PROTACs. a) Optimization of cellular degradation assay in HeLa cells transiently overexpressing USP39‑OFP (HeLa‐USP39‐OFP). […] GAPDH was used as a loading control. g) Proteasome dependence of USP39 degradation. HeLa‐WT cells were co‐treated with MG132 (0.25 µM) or DMSO control and USP39_PROTAC_V1 for 24 h ST. h) Representative immunofluorescence images of HeLa‐USP39_OFP cells treated with DMSO (NT), USP39_PROTAC_V1 (10 nM, 24 h), or USP39_PROTAC_V1 + MLN4924 (1 µM), stained for USP39 (red) and nuclei (blue). i) Quantification of USP39 degradation by fluorescence microscopy, showing DC50 values of 13 nM without MLN4924 (orange) and 204 nM with MLN4924 (blue) (MLN4924 = 5 uM). j) VHL‐dependence of PROTAC‐induced degradation. Schematic of PROTAC recruitment to VHL via hydroxyl‐proline interactions (His115, Ser111). Western blot comparing USP39 levels in VHL WT and VHL KO HeLa cells treated with USP39_PROTAC_V1. k) Fluorescence assay in HEK293T cells co‐expressing USP39‑OFP and either VHL_WT‑EGFP or VHL_m (Δ91–121). […] Comparison of untreated (NT) and USP39_PROTAC_V1–treated (10 nM, 24 h) samples. Percent spliced/unspliced (S/U) ratios are shown, reflecting USP39‐deficiency–associated splicing defects. Data represent at least four independent biological replicates. […]

[2] = target: T3, USP39 / VHL_m ternary complex (Homo sapiens, UniProt P40337+Q53GS9, DEL91-121); test: FRET assay of ternary complex formation in cells, VHL_m; type: cell-based; details: in the presence of MLN4924
T3 construct: expressed in transfected cells; host or cells: HEK293T
Method: as §1

USP39 / VHL = USP39 / VHL (Homo sapiens, UniProt P40337+Q53GS9); test: Co-immunoprecipitation of VHL with western blot for ubiquitin, USP39 and VHL; type: cell-based; details: in the presence of MLN4924
USP39 [3] = target: T2, USP39; test: Western blot of USP39 levels in VHL KO HeLa cells; type: cell-based; set-up: endogenous in cells; host or cells: VHL-KO HeLa
Method: as §1

Sequence of USP39 / VHL (P40337 whole entry, one chain of several): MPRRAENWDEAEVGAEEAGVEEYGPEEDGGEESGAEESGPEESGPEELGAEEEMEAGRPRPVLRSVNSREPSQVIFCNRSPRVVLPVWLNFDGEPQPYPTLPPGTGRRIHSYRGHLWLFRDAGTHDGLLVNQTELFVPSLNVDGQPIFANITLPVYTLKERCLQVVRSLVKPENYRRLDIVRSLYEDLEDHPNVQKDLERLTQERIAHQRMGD
Sequence of USP39 / VHL (Q15370 whole entry partner, one chain of several): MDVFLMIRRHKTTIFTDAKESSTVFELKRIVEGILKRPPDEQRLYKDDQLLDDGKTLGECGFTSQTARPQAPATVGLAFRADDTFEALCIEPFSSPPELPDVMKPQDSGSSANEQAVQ
Sequence of USP39 / VHL (Q15369 whole entry partner, one chain of several): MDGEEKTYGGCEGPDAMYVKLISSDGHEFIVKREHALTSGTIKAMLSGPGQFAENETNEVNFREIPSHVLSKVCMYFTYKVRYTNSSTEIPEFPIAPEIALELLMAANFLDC
T3 sequence (P40337 with tags, fused parts or gaps DEL91-121, one chain of several): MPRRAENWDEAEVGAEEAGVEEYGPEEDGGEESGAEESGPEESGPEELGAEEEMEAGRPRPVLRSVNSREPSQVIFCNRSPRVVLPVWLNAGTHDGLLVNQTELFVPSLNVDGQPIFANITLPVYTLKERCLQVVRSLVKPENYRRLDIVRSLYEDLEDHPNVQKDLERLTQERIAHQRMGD

Kd (USP39_T2): 136 nM
USP39 degradation under co-treatment with proteasome inhibitor MG132 (USP39 [1]): markedly suppressed USP39 degradation
FRET signal of ternary complex formation [2]: minimal signal
USP39 degradation in VHL-KO HeLa cells (USP39 [3]): significantly attenuated
SMILES: Cc1ncsc1-c1ccc(CNC(=O)C2CC(O)CN2C(=O)C(NC(=O)CCOCCOCCOCCNC(=O)c2csc(Nc3ccc(Cl)cc3)n2)C(C)(C)C)cc1 (centres unmarked) [USP39_PROTAC_V1]
Co-immunoprecipitation from VHL pull-downs (USP39 / VHL): enrichment of USP39 and polymerized ubiquitin
